Tested on: diabetic patients (type 1 and type 2 diabetes mellitus)
Test: Research Plan 2: therapy of diabetes mellitus targeting a bone marrow-derived abnormal hematopoietic stem cell
Type: in vivo, human
Details: type 1 and type 2 diabetic patients; 12 weeks therapy; predicted result

Substance: insulin alone: insulin therapy alone (control group of Research Plan 2)
- Effect of eliminating an abnormal hematopoietic stem cell: not eliminated
- Effect of healing diabetes mellitus: not observed
- Therapeutic effect on a complication: observed to some extent, but the complication does not heal

Reference: patent US20230025003A1, “DIABETES THERAPY TARGETING ABNORMAL STEM CELLS” (Biozipcode, Inc., priority 2019, published 2023)
